Our source for the TGI and GI50 values is PubChem BioAssay (NCI).

Molecules are shown by their SMILES.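 Compound exposure: 48 hours, 5 concentrations, 96-well plates. Abbreviation: GI50, concentration required for 50% inhibition of growth. At the TGI there is no net growth.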

In one test the test system is OVCAR-8 ovarian. Description: inhibition of tumour cell growth, NCI panel, 48 h.
As to `C#CCOCn1cnc2c(Cl)ncnc21`, the TGI is over 100 µM.

In turn, `NC1C[C@H](n2cc(/C=C/Br)c(=O)[nH]c2=O)C[C@@H]1CO` (some centres not stated) showed a TGI of over 100 µM.

For the compound `O=c1/c(=C/c2ccccc2F)sc2nc3ccccc3n12`, the TGI is over 100 µM.

For `Cc1ccc(N=Cc2ccc3c(c2)OCO3)cc1C`, the TGI is over 100 µM.

Turning to `COC(C(=O)[O][Ge]([CH3])([CH3])[CH3])c1ccccc1` (configuration not stated), the GI50 was over 100 µM and the TGI was over 100 µM.

Turning to `CC(=O)OCC1OC(OC2C(CSC3OC(COC(C)=O)C(OC(C)=O)C(OC(C)=O)C3OC(C)=O)OC(OC(C)=O)C(OC(C)=O)C2OC(C)=O)C(OC(C)=O)C(OC(C)=O)C1OC(C)=O` (configuration not stated), the TGI was over 100 µM.

On to `CCCCC(CC)CN=C(N)NC(N)=NCCCCCCN=C(N)NC(N)=NCC(CC)CCCC` (configuration not stated), for which the GI50 was 2.08 µM and the TGI stood at 5.19 µM.

For `COc1ccc(OC)c(NC(=O)C2=C(C)NC(C)=C(C(=O)Nc3cc(OC)ccc3OC)C2c2ccccc2)c1`, the TGI was over 100 µM.

The compound `Nc1ccn(CCNCCn2cnc3nc(N)[nH]c(=O)c32)c(=O)n1` yielded a TGI of over 100 µM.

A further test deals with HL-60(TB) leukemia. Description: inhibition of tumour cell growth, NCI panel, 48 h.
`C/C(=N\NS(=O)(=O)c1ccccc1)c1ccc(Cl)c(Cl)c1` had a TGI of over 100 µM.

For `CCCNC1=C(C(=O)OCC)C(=O)CO1`, the TGI was over 100 µM.

For `COC(=O)C(=O)C1(CCC(C)=O)c2ccccc2-c2c(C)ccc(C)c21` (configuration not stated), the TGI is 32.1 µM.

`CC1(C)C(=NNC(=O)C[N+](C)(C)C)C(C)(C)C1=NNC(=O)C[N+](C)(C)C` showed a TGI of over 100 µM.

Consider `COc1ccc2nc(-c3cccs3)cc(C(O)CN3CCSCC3)c2c1` (configuration not stated), for which the TGI worked out at 5.8 µM.

Turning to `N#C/C(=C\c1ccc(O)c(O)c1)C(N)=S`, the TGI was over 20 µM.

In the case of `O=C(CN1CCOCC1)Nc1nc(-c2ccc(Cl)cc2)cs1`, the TGI is 44.9 µM.

Turning to `CC1=C(Oc2ccccc2)C(CCC(=O)O)c2c(O)cc(Cl)c(O)c21` (configuration not stated), the TGI is over 100 µM.

Regarding `COc1cc(C(=O)C/C(CCCC(=O)Nc2ccccc2[N+](=O)[O-])=N/NC(=O)c2cc3ccccc3cc2O)ccc1O`, the TGI stood at 51.3 µM.

`CC(C)[C@H]1CO[C@]2(C)[C@@H]3CN(Cc4ccccc4)C[C@@H]3C(=O)N12` gave a TGI of over 100 µM.

In the case of `CN(C)C(=O)OC(Cn1cncn1)c1ccc(Cl)cc1Cl` (configuration not stated), the TGI was over 100 µM.

`CCOC(=O)COc1ccccc1/C=C1\CCC(CN(C)C)C1=O` (configuration not stated) showed a TGI of 2.58 µM.

`Cc1c(C(=O)C/C(=N\O)C(=O)Nc2cc(Cl)c(Cl)cc2Cl)[n+](=O)c2ccccc2n1[O-]` displayed a TGI of over 100 µM.

In the case of `CC1=Nc2ccccc2S/C1=C(/C)NNC(=O)C(N)=O`, the TGI is over 100 µM.

Take `COc1ccc2c(c1)/C(=C\c1c(C)nc3sccn13)C(=O)N2`: the GI50 was 0.136 µM and the TGI is 0.534 µM.

`O=C(N/C(=C\c1ccc2c(c1)OCO2)c1nc2ccccc2[nH]1)c1ccccc1`: the TGI was 37.4 µM.

`CSc1ccc(C2OC(=O)c3ccccc32)c2ccccc12` (configuration not stated) yielded a TGI of over 100 µM.

`Cc1[nH]ccc2c1[nH]c1cc(=O)ccc12`: the TGI was over 100 µM.

In the case of `NC1C[C@H](n2cc(/C=C/Br)c(=O)[nH]c2=O)C[C@@H]1CO` (some centres not stated), the TGI is over 100 µM.

For `O=c1/c(=C/c2ccccc2F)sc2nc3ccccc3n12`, the TGI is over 100 µM.

Turning to `COc1ccc(-c2n/c(=C\c3c(O)[nH]c4ccc(OC)cc34)cc3c2=Nc2ccccc2-3)cc1`, the GI50 was 10.3 µM and the TGI was 32.5 µM.

Compound `Cc1ccc(N=Cc2ccc3c(c2)OCO3)cc1C` yielded a TGI of over 100 µM.

As for `CCCCC(CC)CN=C(N)NC(N)=NCCCCCCN=C(N)NC(N)=NCC(CC)CCCC` (configuration not stated), the GI50 is 2.07 µM and the TGI came to 3.97 µM.

Compound `Nc1ccn(CCNCCn2cnc3nc(N)[nH]c(=O)c32)c(=O)n1` returned a TGI of over 100 µM.

In a further test the test system is SW-620 colon. Nature of the test: inhibition of tumour cell growth, NCI panel, 48 h.
Consider `C/C(=N\NS(=O)(=O)c1ccccc1)c1ccc(Cl)c(Cl)c1`, for which the TGI was over 100 µM.

As to `CCCNC1=C(C(=O)OCC)C(=O)CO1`, the TGI is over 100 µM.

`COC(=O)C(=O)C1(CCC(C)=O)c2ccccc2-c2c(C)ccc(C)c21` (configuration not stated) had a TGI of over 100 µM.

For the compound `COc1ccc2nc(-c3cccs3)cc(C(O)CN3CCSCC3)c2c1` (configuration not stated), the TGI amounted to 93.7 µM.

In turn, `N#C/C(=C\c1ccc(O)c(O)c1)C(N)=S` came in with a TGI of over 100 µM.

`O=C(CN1CCOCC1)Nc1nc(-c2ccc(Cl)cc2)cs1` gave a TGI of over 100 µM.

The compound `CC1=C(Oc2ccccc2)C(CCC(=O)O)c2c(O)cc(Cl)c(O)c21` (configuration not stated) displayed a TGI of over 100 µM.

As to `COc1cc(C(=O)C/C(CCCC(=O)Nc2ccccc2[N+](=O)[O-])=N/NC(=O)c2cc3ccccc3cc2O)ccc1O`, the TGI is over 100 µM.

On to `CC(C)[C@H]1CO[C@]2(C)[C@@H]3CN(Cc4ccccc4)C[C@@H]3C(=O)N12`, for which the TGI is over 100 µM.

The compound `CN(C)C(=O)OC(Cn1cncn1)c1ccc(Cl)cc1Cl` (configuration not stated) registered a TGI of over 100 µM.

`CCOC(=O)COc1ccccc1/C=C1\CCC(CN(C)C)C1=O` (configuration not stated) returned a TGI of 6.64 µM.

`Cc1c(C(=O)C/C(=N\O)C(=O)Nc2cc(Cl)c(Cl)cc2Cl)[n+](=O)c2ccccc2n1[O-]` returned a TGI of 9.74 µM.

`CC1=Nc2ccccc2S/C1=C(/C)NNC(=O)C(N)=O` returned a TGI of over 100 µM.

`Nn1c(NNC(=O)C(=O)Nc2cc(Cl)c(Cl)cc2Cl)n[nH]c1=S` gave a TGI of over 100 µM.

Regarding `COc1ccc2c(c1)/C(=C\c1c(C)nc3sccn13)C(=O)N2`, the GI50 is under 0.0476 µM and the TGI is over 100 µM.

`O=C(N/C(=C\c1ccc2c(c1)OCO2)c1nc2ccccc2[nH]1)c1ccccc1` returned a TGI of over 100 µM.

For the compound `CSc1ccc(C2OC(=O)c3ccccc32)c2ccccc12` (configuration not stated), the TGI was over 100 µM.

Consider `Cc1[nH]ccc2c1[nH]c1cc(=O)ccc12`, for which the TGI was over 100 µM.

With `C#CCOCn1cnc2c(Cl)ncnc21`, the TGI was over 100 µM.

`O=c1/c(=C/c2ccccc2F)sc2nc3ccccc3n12` had a TGI of over 100 µM.

Take `COc1ccc(-c2n/c(=C\c3c(O)[nH]c4ccc(OC)cc34)cc3c2=Nc2ccccc2-3)cc1`: the GI50 is 2.4 µM and the TGI was 6.9 µM.

Compound `Cc1ccc(N=Cc2ccc3c(c2)OCO3)cc1C` yielded a TGI of over 100 µM.

For `COC(C(=O)[O][Ge]([CH3])([CH3])[CH3])c1ccccc1` (configuration not stated), the GI50 is over 100 µM and the TGI was over 100 µM.

`CC(=O)OCC1OC(OC2C(CSC3OC(COC(C)=O)C(OC(C)=O)C(OC(C)=O)C3OC(C)=O)OC(OC(C)=O)C(OC(C)=O)C2OC(C)=O)C(OC(C)=O)C(OC(C)=O)C1OC(C)=O` (configuration not stated) showed a TGI of over 100 µM.

With `COc1ccc(OC)c(NC(=O)C2=C(C)NC(C)=C(C(=O)Nc3cc(OC)ccc3OC)C2c2ccccc2)c1`, the TGI was over 100 µM.

In turn, `Nc1ccn(CCNCCn2cnc3nc(N)[nH]c(=O)c32)c(=O)n1` returned a TGI of over 100 µM.
